Test: gradient 5% acetonitrile 3 min, to 50% in 2 min, to 85% in 15 min, held 3 min, 100 µL/min
Details: column: Zorbax Extend-C18 2.1 x 50 mm; eluents: water / acetonitrile, 0.1% formic acid
In short: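 A Zorbax Extend-C18 column (2.1 × 50 mm, 1.8 μm) run at 100 μL/min with water and acetonitrile, both containing 0.1% formic acid, separated mixtures of ~100 pure standards. The HPLC was coupled to a quadrupole time-of-flight mass spectrometer operated in positive and negative ionization mode, with dead and dwell volumes of 40 μL and 900 μL. Each retention time was taken from a computationally picked adduct peak that was then manually inspected.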

SMILES | RP-LC retention time [s]
CCN(CC)CCNC(=O)c1cc(S(=O)(=O)N2CCCCC2)ccc1Cl | 637
Cc1nnc(N2CCCC(C(=O)NCc3cccc(F)c3)C2)c2nn(-c3ccc(Cl)cc3)c(C)c12 (configuration not stated) | 757
O=C1CCN(C(=O)C2CCN(C(=O)C3CCC3)CC2)CCCCCCN1 | 626
COc1ccc(NS(=O)(=O)c2cc3n(c2)CCN(C)C3=O)cc1 | 657
CCc1ccc(S(=O)(=O)N2CCc3nc(-c4ccccc4)ncc3C2)cc1 | 1160
Cc1cc(C)c(C(=O)N2CCC(CC(=O)NCc3ccc(Cl)cc3)CC2)[nH]1 | 800
CCN(CC)C(=O)NCCc1noc(COC)n1 | 626
O=C(O)c1cn(-c2cccc(Br)c2)nn1 | 723
CN(C)c1ccc(CNC(=O)C2(c3ccc(NS(C)(=O)=O)cc3)CCCCC2)cc1 | 672
CC(C)n1c(N2CCCN(C(=O)c3cccnc3)CC2)cc(=O)n(C(C)C)c1=O | 668
O=C(CN1C(=O)CCCc2cc(S(=O)(=O)N3CCCCC3)ccc21)NC1CCCCC1 | 880
CCc1nnc(NS(=O)(=O)c2ccc(NC(=O)c3ccco3)cc2)s1 | 680
O=C(c1ccc2ccccc2n1)N1CCN(C(=O)c2nnn3c2COC(c2ccccc2)C3)CC1 (configuration not stated) | 833
COc1cccc(N2N=NC3C(=O)N(c4ccc(OC)c(OC)c4)C(=O)C32)c1 (configuration not stated) | 852
Cc1ccc(CNC(=O)CN2C(=O)C3CCCCN3c3ccc(S(=O)(=O)N(C)C)cc32)cc1 (configuration not stated) | 922
CCOC(=O)C(CC)SC1=NS(=O)(=O)c2cc(F)ccc2N1 (configuration not stated) | 758
CCOc1ccccc1NC(=O)N1CCC2(CC1)NC(=O)c1ccccc1O2 | 810
COc1ccc(N2C=C(C(=O)N3CCOCC3)S(=O)(=O)c3ccc(Cl)cc32)cc1Cl | 886
Cc1ccc(C)c(N2CCN(C(=O)C3CCN(c4cnc5nccnc5c4)CC3)CC2)c1 | 907
COc1ccc(OCc2noc(CNS(=O)(=O)c3ccc(NC(C)=O)cc3)n2)cc1 | 710
COc1ccc(-c2noc(C3CCCN3C(=O)c3ccc(C#N)cc3)n2)cc1OC (configuration not stated) | 783
CCC(=O)N1CCc2cc(N3CC(C(=O)NCc4ccco4)CC3=O)ccc21 (configuration not stated) | 667

SMILES | RP-LC retention time [s]
CCc1nc(-c2csc(S(=O)(=O)N3CCC(C(=O)Nc4ccc(F)cc4)CC3)c2)no1 | 962
COC(=O)c1ccc(NC(=O)Cn2cccc(-c3nc(-c4ccc(Cl)cc4)no3)c2=O)cc1 | 934
COCc1noc([C@@H]2CC(F)(F)CN2C(=O)c2nccn2C)n1 | 716
Cc1ccc(NS(=O)(=O)c2ccc3c(c2)CCCC(=O)N3)cc1C | 756
CCOc1ccccc1NC(=O)N1CCCC1c1nc(-c2cccc(C)c2)no1 (configuration not stated) | 858
CC(CCNC(=O)c1nnc(-c2ccc(S(=O)(=O)N3CCOCC3)cc2)o1)N1CCCCCC1 (configuration not stated) | 605
O=C(NC1CC1)[C@@H]1C[C@H](Oc2ccccc2)CN1C(=O)c1ccoc1 | 709
Cc1ccc(-n2c(=O)n(CC(=O)Nc3ccc(C)cc3C)c3cccnc32)cc1 | 907
CCc1cc(-c2csc(S(=O)(=O)NCCc3ccc(Cl)cc3)c2)on1 | 1050
CC1CCN(C(=O)c2cc(S(=O)(=O)N3CCC(C(=O)N4CCC(C)CC4)CC3)cn2C)CC1 | 883
CCc1ccccc1S(=O)(=O)NCc1cccnc1-c1ccc(OC)cc1 | 718
COc1ccc(CNC(=O)N2C[C@@H]3C[C@H]2C[C@@H]3NS(=O)(=O)c2ccccc2)cc1 | 764
COC(=O)CNC(=O)N1c2ccccc2CC1c1nc(C(C)C)no1 (configuration not stated) | 834
CCN1C(=O)CCc2cc(NC(=O)c3n[nH]c4ccccc34)ccc21 | 761
Cc1ccccc1NC(=O)C1CCCN(C(=O)c2nn(C)c3c2CN(C(=O)C(C)(C)C)CC3)C1 (configuration not stated) | 802
COc1ccc(Cl)cc1NC(=O)Nc1c(-c2ccncc2)nc2ccccn12 | 642
Cc1ccc(C(C)NC(=O)c2ccc(-c3cccnc3)nc2)c(C)c1 (configuration not stated) | 745
CCCCN1C(=O)C(NC(=O)c2ccccc2OC)(C(F)(F)F)C2=C1CC(C)(C)CC2=O (configuration not stated) | 1080
Cc1nc(-c2cn(C)c3ncccc23)sc1C(=O)Nc1ccccc1F | 922
CSc1ccc(CNC(=O)C2CCCN(c3nc4c(s3)c(C)nn4-c3ccc(F)cc3)C2)cc1 (configuration not stated) | 1190
Cc1ccc(-c2cc(C(=O)N3CCOCC3)nn2C2CCS(=O)(=O)C2)cc1C (configuration not stated) | 780
O=C(NCc1ccc(F)cc1)c1cccc(-c2ccc(N3CCCC3)nc2)c1 | 680

SMILES | RP-LC retention time [s]
N#Cc1ccc(NC(=O)Cn2cccc(-c3nc(-c4ccccc4)no3)c2=O)cc1 | 837
CCCNC(=O)c1ccc2c(=O)n(Cc3ccccc3)c(N(CC)CC)nc2c1 | 997
O=C(NCc1ccc2c(c1)OCO2)C1CC(=O)N(c2ccc3c(c2)CCN3C(=O)C2CC2)C1 (configuration not stated) | 714
Cc1ccc(-c2nc3ccccn3c2Nc2ccc3c(c2)OCCO3)cc1 | 690
Cc1ccc(NC(=O)c2ccco2)c(C(=O)c2ccccc2)c1 | 995
Cc1ccc(-n2c(=O)n(CC(=O)NCCCN3CCOCC3)c3cccnc32)cc1 | 591
NC(=O)C1CCN(C(=O)c2cncc(NS(=O)(=O)c3ccc(F)cc3)c2)CC1 | 606
CCCN1C(=O)c2ccccc2Sc2cc(-c3noc(C(C)NC(=O)c4ccco4)n3)ccc21 (configuration not stated) | 984
O=c1n(Cc2ccccc2Cl)nc2c(S(=O)(=O)N3CCc4ccccc4C3)cccn12 | 1030
Cc1ccc(-c2noc(Cn3nc(-c4ccccc4F)ccc3=O)n2)cc1 | 1050
O=C(Nc1nc(-c2cccc3ccccc23)cs1)c1ccncc1 | 904
Cc1nnc(-c2sccc2C)o1 | 742
CCCc1ccc(S(=O)(=O)N2CCc3c(c(-c4nnc(-c5ccc(F)cc5)o4)nn3C)C2)cc1 | 1070
O=C(NCCc1csc(-c2cccs2)n1)C1CCN(S(=O)(=O)Cc2ccccc2)CC1 | 855
CCN1C(=O)C2(CCN(C(=O)NCCC(C)C)CC2)c2ccccc21 | 854
O=C(Nc1ccc(Cl)cc1)N1CCC(n2cnc3ccc(F)cc3c2=O)CC1 | 848
CCc1ccc(-c2cc3c(=O)n(CC(O)c4ccccc4OC)ccn3n2)cc1 (configuration not stated) | 790
COC(=O)c1ccccc1NC(=O)N1CCN(c2ccc(=O)n(-c3ccccc3)n2)CC1 | 876
CCN1C(=O)COc2ccc(-c3noc(CNC(=O)C(c4ccccc4)c4ccccc4)n3)cc21 | 975
COc1ccc(C2(CNC(=O)C(=O)Nc3ccc(N4CCCC4=O)c(C)c3)CCCC2)cc1 | 909
O=C(CCCN1CCC2(CC1)C(=O)NCN2c1ccccc1)c1ccc(F)cc1 | 725
O=C(NCc1ccccc1Cl)C1CC(=O)N(CCc2c[nH]c3ccc(F)cc23)C1 (configuration not stated) | 811

SMILES | RP-LC retention time [s]
CCCS(=O)(=O)NCCS(=O)(=O)N1CCN(c2cccc(Cl)c2)CC1 | 867
Cc1ccc(C)c(NC(=O)COc2nc(C)nc3ccccc23)c1 | 754
CCCN1C(=O)c2cc(S(=O)(=O)NCc3ccc(C)o3)ccc2Oc2cccnc21 | 995
CCN1C(=O)CCc2cc(NS(=O)(=O)Cc3cccc(Cl)c3)ccc21 | 846
Cc1cccc(C2=NC3(CCN(C(=O)Nc4ccc5c(c4)OCO5)CC3)NC2=O)c1 | 790
CCOc1ccc(-c2ccc(=O)n(CCNC(=O)c3cc(C)oc3C)n2)cc1 | 765
CCCc1noc(-c2ccc(-n3cnc(C(=O)NC4CCCC4)c3)nc2)n1 | 915
COc1ccc(-c2noc(C3(NC(=O)c4ccc(C(F)(F)F)cc4)CCCCC3)n2)cc1 | 1260
CC(C)CC(=O)N1CCCC(COc2ccc(C(=O)NC(C)C)cc2)C1 (configuration not stated) | 827
COc1ccc(NC(=O)N2CCC3(CC2)NC(=O)c2ccccc2O3)cc1 | 712
Cc1cc(C)c(S(=O)(=O)Nc2ccc(CC(=O)N3CCC(O)CC3)cc2)c(C)c1 | 676
CCOc1ccc(CC(=O)N2CC(=O)Nc3ccccc32)cc1 | 706
Cc1ccc(C)c(Cn2nc3c(S(=O)(=O)N4CCCC4)cccn3c2=O)c1 | 914
CCOCCCNC(=O)N1[C@H]2CC[C@@H]1c1cnc(-c3ccccc3)nc1C2 | 778
CCN1C(=O)C2CC3(CCN(Cc4ccc5cc[nH]c5c4)CC3)CN2C1=O (configuration not stated) | 621
COc1ccc(S(=O)(=O)N2CCc3nn(CC4CC4)c(=O)n3CC2)cc1Cl | 786
Cc1nc(-c2cnccn2)nc2c1CCC(=O)N2Cc1cccc(F)c1 | 733
COc1ccc(NC(=O)N2CCOc3ccc(Cl)cc32)cc1OC | 870
COc1cc(Cl)ccc1C(=O)N1CCN(c2cc(-c3cccs3)[nH]n2)CC1 | 795
O=C(NC1CC1)c1cccc(OCC2CCCN(C(=O)C3CCCO3)C2)c1 (configuration not stated) | 689
CCOc1ccc2c(n1)CCN(C(=O)NC1CCCCC1)C2 | 822

— the METLIN SMRT retention time set (Domingo-Almenara et al. 2019)
